Laboratory results published in patent US20140171357A1, “VANCOMYCIN DERIVATIVES” (Seachald Pharmaceuticals, Inc., priority 2011, published 2014).
Values after ≈ are worked out from the molar mass of the structure shown.

Legend:
B. anthracis Sterne 105 = type: cell-based, Bacillus anthracis; details: Tween 80 0.002% medium, serum condition not stated
[1] = tested on: methicillin-susceptible S. aureus (MSSA, 22); experiment: MIC broth microdilution, MSSA; details: for MIC 50% / MIC 90%: MSSA (22)
[2] = tested on: methicillin-resistant S. aureus (MRSA, 22); experiment: MIC broth microdilution, MRSA; details: for MIC 50% / MIC 90%: MRSA (22)
[3] = tested on: vancomycin-intermediate S. aureus (VISA, 5); experiment: MIC broth microdilution, VISA
[4] = tested on: vancomycin-resistant S. aureus (VRSA, 6); experiment: MIC broth microdilution, VRSA
[5] = tested on: heterogeneous VISA (hVISA, 10); experiment: MIC broth microdilution, hVISA
S. pneumoniae (22) = experiment: MIC broth microdilution, S. pneumoniae; details: for MIC 50% / MIC 90%: S. pneumoniae (22), MHB + lysed horse blood
[6] = tested on: Staphylococcus epidermidis (43 strains); experiment: MIC broth microdilution, S. epidermidis; details: S. epidermidis (43)
[7] = tested on: VanA vancomycin-resistant E. faecium (10); experiment: MIC broth microdilution, VanA E. faecium; details: E. faecium, VanA (10)
[8] = tested on: VanB vancomycin-resistant E. faecium (10); experiment: MIC broth microdilution, VanB E. faecium; details: E. faecium, VanB (10)
S. aureus ATCC 25923 = experiment: Neutropenic murine thigh infection model; details: for AUCc-t (AUC difference between control and treated animals): 24 h time kill; for in vivo efficacy against S. aureus (in words): neutropenic soft tissue infection model
[9] = tested on: VanA vancomycin-resistant E. faecalis (11); experiment: MIC broth microdilution, VanA E. faecalis; details: E. faecalis, VanA (11)
[10] = tested on: VanB vancomycin-resistant E. faecalis (12); experiment: MIC broth microdilution, VanB E. faecalis; details: E. faecalis, VanB (12)
[11] = tested on: Staphylococcus aureus (65 strains); experiment: MIC broth microdilution, S. aureus all isolates; details: S. aureus (65), all resistance subsets
[12] = tested on: β-hemolytic streptococci (23); experiment: MIC broth microdilution, β-hemolytic streptococci; details: for fold more potent than teicoplanin and daptomycin / fold more potent than vancomycin: β-hemolytic streptococci; for MIC 50% / MIC 90%: β-hemolytic streptococci (23), MHB + lysed horse blood
VanC enterococci (22) = experiment: MIC broth microdilution, vanC-carrying enterococci; details: VanC enterococci (22)
[13] = tested on: vancomycin-susceptible E. faecium (21); experiment: MIC broth microdilution, vancomycin-susceptible E. faecium; details: E. faecium, vancomycin-susceptible (21)
[14] = tested on: vancomycin-susceptible E. faecalis (23); experiment: MIC broth microdilution, vancomycin-susceptible E. faecalis; details: E. faecalis, vancomycin-susceptible (23)
[15] = 1 mg/kg single intraperitoneal dose
[16] = 4 mg/kg single intraperitoneal dose
[17] = 16 mg/kg single intraperitoneal dose

## CCCCCCCCCCNCCNC1(C)CC(OC2C(Oc3c4cc5cc3Oc3ccc(cc3Cl)C(O)C3NC(=O)C(NC(=O)C5NC(=O)C(CC(N)=O)NC(=O)C(NC(=O)C(CC(C)C)NC)C(O)c5ccc(c(Cl)c5)O4)c4ccc(O)c(c4)-c4c(O)cc(O)cc4C(C(=O)NCCOCCOCCN)NC3=O)OC(CO)C(O)C2O)OC(C)C1O (stereo not drawn) [Compound 2]
B. anthracis Sterne 105
  MIC: 0.03 µg/mL (≈ 0.017 µM)
[1]; MSSA
  modal MIC: 0.03 µg/mL
[1]
  MIC 50%: 0.03 µg/mL (≈ 0.017 µM)
  MIC 90%: 0.12 µg/mL (≈ 0.0681 µM)
[2]; MRSA
  modal MIC: 0.06 µg/mL
[2]
  MIC 50%: 0.06 µg/mL (≈ 0.034 µM)
  MIC 90%: 0.12 µg/mL (≈ 0.0681 µM)
[3]
  MIC 50%: 0.12 µg/mL (≈ 0.0681 µM)
[4]
  MIC 50%: 1 µg/mL (≈ 0.567 µM)
[5]
  MIC 50%: 0.06 µg/mL (≈ 0.034 µM)
  MIC 90%: 0.12 µg/mL (≈ 0.0681 µM)
S. pneumoniae (22); S. pneumoniae
  fold more potent than linezolid: 32 fold
S. pneumoniae (22)
  MIC 50%: 0.015 µg/mL
  MIC 90%: 0.03 µg/mL
[6]
  MIC 50%: 0.03 µg/mL (≈ 0.017 µM)
  MIC 90%: 0.06 µg/mL (≈ 0.034 µM)
[7]
  MIC 50%: 1 µg/mL (≈ 0.567 µM)
  MIC 90%: 2 µg/mL (≈ 1.13 µM)
[8]
  MIC 50%: 0.015 µg/mL (≈ 0.00851 µM)
  MIC 90%: 0.03 µg/mL (≈ 0.017 µM)
S. aureus ATCC 25923; [15]
  Max Kill (maximum decrease from initial infection level): −0.28 Log10 CFU/thigh
  AUCc-t (AUC difference between control and treated animals): 29 (Log10 CFU/thigh)/hr
S. aureus ATCC 25923; [16]
  Max Kill (maximum decrease from initial infection level): −1.01 Log10 CFU/thigh
  AUCc-t (AUC difference between control and treated animals): 40.1 (Log10 CFU/thigh)/hr
S. aureus ATCC 25923; [17]
  Max Kill (maximum decrease from initial infection level): −1.13 Log10 CFU/thigh
  AUCc-t (AUC difference between control and treated animals): 55 (Log10 CFU/thigh)/hr
S. aureus ATCC 25923; 1, 4 and 16 mg/kg intraperitoneal
  organism reduction across doses: organism reduction over the entire dose range
S. aureus ATCC 25923
  in vivo efficacy against S. aureus (in words): bactericidal characteristics and prolonged in vivo activity
[9]
  MIC 50%: 2 µg/mL (≈ 1.13 µM)
  MIC 90%: 4 µg/mL (≈ 2.27 µM)
[10]
  MIC 50%: 0.06 µg/mL (≈ 0.034 µM)
  MIC 90%: 0.12 µg/mL (≈ 0.0681 µM)
[11]
  MIC 50%: 0.06 µg/mL (≈ 0.034 µM)
  MIC 90%: 0.12 µg/mL (≈ 0.0681 µM)
[12]
  fold more potent than teicoplanin and daptomycin: two- to four
  fold more potent than vancomycin: four- to eight
  MIC 50%: 0.03 µg/mL
  MIC 90%: 0.12 µg/mL
VanC enterococci (22)
  MIC 50%: 0.06 µg/mL (≈ 0.034 µM)
  MIC 90%: 0.12 µg/mL (≈ 0.0681 µM)
[13]
  MIC 50%: 0.015 µg/mL (≈ 0.00851 µM)
  MIC 90%: 0.03 µg/mL (≈ 0.017 µM)
[14]
  MIC 50%: 0.06 µg/mL (≈ 0.034 µM)
  MIC 90%: 0.12 µg/mL (≈ 0.0681 µM)

## CNC(CC(C)C)C(=O)NC1C(=O)NC(CC(N)=O)C(=O)NC2C(=O)NC3C(=O)NC(C(=O)NC(C(=O)O)c4cc(O)c(CNCCOCCOCC[N+](C)(C)C)c(O)c4-c4cc3ccc4O)C(O)c3ccc(c(Cl)c3)Oc3cc2cc(c3OC2OC(CO)C(O)C(O)C2OC2CC(C)(NCc3ccc(OCc4ccc(Cl)c(Cl)c4)cc3)C(O)C(C)O2)Oc2ccc(cc2Cl)C1O (stereo not drawn) [Compound 29]
B. anthracis Sterne 105
  MIC: 0.03 µg/mL
[1]
  MIC 50%: 0.06 µg/mL
  MIC 90%: 0.12 µg/mL
[2]
  MIC 50%: 0.06 µg/mL
  MIC 90%: 0.12 µg/mL
[3]
  MIC 50%: 0.25 µg/mL
[4]
  MIC 50%: 4 µg/mL
[5]
  MIC 50%: 0.06 µg/mL
  MIC 90%: 0.12 µg/mL
S. pneumoniae (22)
  MIC 50%: 0.03 µg/mL
  MIC 90%: 0.06 µg/mL
[6]
  MIC 50%: 0.03 µg/mL
  MIC 90%: 0.06 µg/mL
[7]
  MIC 50%: 1 µg/mL
  MIC 90%: 2 µg/mL
[8]
  MIC 50%: 0.06 µg/mL
  MIC 90%: 0.06 µg/mL
S. aureus ATCC 25923; [15]
  Max Kill (maximum decrease from initial infection level): 0.08 Log10 CFU/thigh
  AUCc-t (AUC difference between control and treated animals): 17.7 (Log10 CFU/thigh)/hr
S. aureus ATCC 25923; [16]
  Max Kill (maximum decrease from initial infection level): 0.07 Log10 CFU/thigh
  AUCc-t (AUC difference between control and treated animals): 22.6 (Log10 CFU/thigh)/hr
S. aureus ATCC 25923; [17]
  Max Kill (maximum decrease from initial infection level): −1.05 Log10 CFU/thigh
  AUCc-t (AUC difference between control and treated animals): 45.2 (Log10 CFU/thigh)/hr
S. aureus ATCC 25923
  in vivo efficacy against S. aureus (in words): bactericidal characteristics and prolonged in vivo activity
[9]
  MIC 50%: 4 µg/mL
  MIC 90%: 4 µg/mL
[10]
  MIC 50%: 0.12 µg/mL
  MIC 90%: 0.12 µg/mL
[11]
  MIC 50%: 0.06 µg/mL
  MIC 90%: 0.25 µg/mL
[12]
  fold more potent than teicoplanin and daptomycin: two- to four
  fold more potent than vancomycin: four- to eight
  MIC 50%: 0.03 µg/mL
  MIC 90%: 0.12 µg/mL
VanC enterococci (22)
  MIC 50%: 0.12 µg/mL
  MIC 90%: 0.5 µg/mL
[13]
  MIC 50%: 0.03 µg/mL
  MIC 90%: 0.06 µg/mL
[14]
  MIC 50%: 0.12 µg/mL
  MIC 90%: 0.12 µg/mL
